US20230000943A1, “METHOD OF INDUCING SYNAPTOGENESIS BY ADMINISTERING ANGIOTENSIN AND ANALOGUES THEREOF” (Synaptogenix, Inc., priority 2021, published 2023)
Like-named read-outs stand apart in the source and are kept apart here.

How the values were obtained:
PKC [1] = details: cited from earlier work
PKC [2] = details: competes with [3H] phorbol dibutyrate; read-out: Ki for binding to PKC; cited from earlier work
[3] = test system: squamous cell carcinoma and melanoma; details: used topically; cited from earlier work
NCI 60 cell line = NCI 60 cell line screen; cited from earlier work
protein kinase C = details: specifically the (−)-enantiomer; read-out: potency (EC50); cited from earlier work
BDNF = assay: Mouse dosing study: brain BDNF levels; type: in vivo; details: mice
Excerpt: (§1) Mouse studies may be performed using an angiotensin, as described above, in accordance with the protocol described below. The following metrics may be used to evaluate dosing regimens: induction of brain postsynaptic anchoring protein PSD-95, upregulation of BDNF levels in brain, upregulation of HGF levels in brain, minimal downregulation of PKC-ε levels, and elevation of brain and plasma concentrations of the angiotensin. Groups of 2-3 mice may be formed and housed in an approved research animal facility. Water may be given ad libitum. A first study involves three groups of mice with animals in each group dosed weekly for 1, 2, 3, or 6 consecutive weeks. Each group has its own control group containing the same number of mice. For example, mice in the first, second and third groups may receive an intravenous (i.v.) injection of 10 μg/m^2, 15 μg/m^2, and 25 μg/m^2 dose of an angiotensin. For each dose, mice in that group may receive a single injection of the angiotensin weekly for a predetermined number of consecutive weeks. Following dosing, mice are sacrificed, and the blood and brain of each animal is collected for further analysis.

[4] = set-up: species or system mice; details: mouse, in vivo, iv
Excerpt: as §1

PSD-95 = assay: Mouse dosing study: PSD-95 levels; type: in vivo, mice; details: 25 μg/m^2 i.v. once per week, after three weeks
Excerpt: as §1

[5] = A-ring bryologs, read-out: affinity for PKC

Question: Which results are given for CCCCCCCC(=O)O[C@H]1/C(=C/C(=O)OC)CC2C[C@H](CO)OC(=O)C[C@H](O)C[C@@H]3CCC[C@H](C[C@@H]4CCO[C@H](/C=C/C(C)(C)[C@]1(O)O2)O4)O3 [Analog 1]?
Answer: Ki (PKC [1]; Table 1 Bryologs, read-out: PKC Affin): 0.25 nM; affinity for PKC (in words) (PKC [1]; compared with Bryostatin-1 and the other bryologs): highest affinity for PKC

Question: Which Ki (PKC [2]) does the source give for CC1=C[C@]23C(=O)[C@@H](C=C(COC(=O)c4ccccc4)[C@@H](O)[C@]2(O)[C@H]1OC(=O)c1ccccc1)[C@H]1[C@@H](C[C@H]3C)C1(C)C [Ingenol 3,20-dibenzoate] here?
Answer: The Ki was 240 nM.

Question: Which antitumor activity [3] does the source give for C/C=C(/C)C(=O)O[C@H]1C(C)=C[C@]23C(=O)[C@@H](C=C(CO)[C@@H](O)[C@]12O)[C@H]1[C@@H](C[C@H]3C)C1(C)C [Ingenol-3-angelate] here?
Answer: Its antitumor activity is “exhibits antitumor activity”.

Question: Which “GI50 (concentration required to inhibit growth by 50%)” value (NCI 60 cell line) does the source give for CC1=CC[C@H](C)C(C)(C)[C@@H]1/C=C/C(C)=C/CC[C@@]1(CO)[C@H](CCCO)/C(=C(/C)C=O)CC[C@]1(C)O [Iripallidal] here?
Answer: Its value is “micromolar to nanomolar range”.

Question: With CCCCCCCC(=O)OC1C(=CC(=O)OC)CC2CC(CO)OC(=O)CC(O)CCOC(C(C)(C)C)CC3CCOC(C=CC(C)(C)C1(O)O2)O3 (stereo not shown) [bryolog 3] as the compound, how does the Ki (PKC [1]; [5]) read?
Answer: The Ki was 6.5 nM.

Question: For CCCCCCCC(=O)OC1C(=CC(=O)OC)CC2CC(CO)OC(=O)CC(O)CCOC(c3ccccc3)CC3CCOC(C=CC(C)(C)C1(O)O2)O3 (stereo not shown) [bryolog 4], which Ki (PKC [1]; [5]) is on record?
Answer: The Ki was 2.3 nM.

Question: With CCCCCCCC(=O)OC1C(=CC(=O)OC)CC2CC(CO)OC(=O)CC(O)CCOC(CCCc3ccc(Br)cc3)CC3CCOC(C=CC(C)(C)C1(O)O2)O3 (stereo not shown) [bryolog 5] as the compound, how does the Ki (PKC [1]; [5]) read?
Answer: Its Ki is 1.9 nM.

Question: For CCCCCCCCc1ccc2c3c(c[nH]c13)C[C@@H](CO)NC(=O)[C@H](C(C)C)N2C [octylindolactam V, Octylindolactam V], which EC50 (protein kinase C) is on record?
Answer: The EC50 was 29 nM.

Question: Which “brain BDNF levels” value (BDNF; 15 μg/m^2 for three consecutive weeks) does the source give for angiotensin here?
Answer: The value was “some increase”.

Question: What about the “brain BDNF levels” value (BDNF; 25 μg/m^2) of the same compound?
Answer: The value was “maximum increase”.

Question: What about the “brain BDNF levels” value (BDNF; 25 μg/m^2, 3 on/3 off/3 on regimen) of the same compound?
Answer: Its value is “remain elevated”.

Question: What about the “brain BDNF levels” value (BDNF; after three consecutive weekly doses at 25 μg/m^2) of the same compound?
Answer: Its value is “highest level”.

Question: And the “concentration in brain relative to plasma” value [4]?
Answer: The value was “less than its concentration in plasma”.

Question: And the “crossing of the blood-brain-barrier” value [4]?
Answer: Its value is “crosses the BBB”.

Question: What about the “PSD-95 in brain and blood samples” value (PSD-95) of the same compound?
Answer: Its value is “higher amounts of PSD-95”.
